From patent US8445501B2, “Substituted 7-carboxamido-pyrrolo[3,2-d]pyrimidines” (Takeda GmbH, priority 2008, dated 2013) come the findings set out here.

Each structure is given as a SMILES string.

For the assay, the target named is T1, human PDE5 (Homo sapiens, UniProt O76074).
T1 construct: from tissue; host or cells: platelets from fresh blood of human donors (lysate, 10,000 g supernatant)
Briefly: Inhibition of the type 5 phosphodiesterase (PDE5) activity, modified SPA test with platelet lysate. To be noted: PDE5 from human platelet lysate, 0.5 μM cGMP. The class given is biochemical. The method in brief:
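SPA-based cGMP hydrolysis, [3H]cGMP tracer in 0.5 μM cGMP, by sonicated human platelet lysate; motapizone (1 μM) and a PDE2 inhibitor (10 nM) block other PDEs. Reaction 15 min at 37 °C after 5 min preincubation, quenched with beads containing IBMX. IC50 from concentration-effect curves.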
Compound `CC(=O)N1CCC(NC(=O)c2c[nH]c3c(-c4cc(F)c(OC(F)F)cc4OCC4CC4)ncnc23)CC1` [Example 279, 4-[2-Cyclopropylmethoxy-4-(1,1-difluoro-methoxy)-5-fluoro-phenyl]-5H-pyrrolo[3,2-d]pyrimidine-7-carboxylic acid (1-acetyl-piperidin-4-yl)-amide] gave an IC50 of 2.34 nM. Compound `COCC(=O)N1CCC[C@@H](NC(=O)c2c[nH]c3c(-c4c(OCC5CC5)ccc5c4OCO5)ncnc23)C1` [Example 48, 4-(5-Cyclopropylmethoxy-benzo[1,3]dioxol-4-yl)-5H-pyrrolo[3,2-d]pyrimidine-7-carboxylic acid [(R)-1-(2-methoxy-ethanoyl)-piperidin-3-yl]amide] gave an IC50 of 0.427 nM. Under `COc1ccc(-c2ncnc3c(C(=O)NC4CCN(C(=O)CO)CC4)c[nH]c23)c(OCC2CC2)c1` [Example 205, 4-(2-Cyclopropylmethoxy-4-methoxy-phenyl)-5H-pyrrolo[3,2-d]pyrimidine-7-carboxylic acid [1-(2-hydroxy-ethanoyl)-piperidin-4-yl]amide] stands 0.832 nM; under `CCCCOc1ccc2c(c1-c1ncnc3c(C(=O)NC4CCCN(C(=O)OCC)C4)c[nH]c13)OCO2` (centres unmarked) [Example 148, 3-{[4-(5-Butoxy-benzo[1,3]dioxol-4-yl)-5H-pyrrolo[3,2-d]pyrimidine-7-carbonyl]-amino}-piperidine-1-carboxylic acid ethyl ester], 0.407 nM. `COCCNC(=O)[C@H]1CC[C@H](NC(=O)c2c[nH]c3c(-c4cc(F)ccc4OCC4CC4)ncnc23)CC1` [Example 274, trans-4-(2-Cyclopropylmethoxy-5-fluoro-phenyl)-5H-pyrrolo[3,2-d]pyrimidine-7-carboxylic acid [4-(2-methoxy-ethylcarbamoyl)-cyclohexyl]-amide] had an IC50 of 5.25 nM. Under `COc1ccc(-c2ncnc3c(C(=O)N[C@H]4CC[C@@H](NC(=O)CO)CC4)c[nH]c23)c(OCC2CC2)c1` [Example 202, cis-4-(2-Cyclopropylmethoxy-4-methoxy-phenyl)-5H-pyrrolo[3,2-d]pyrimidine-7-carboxylic acid [4-(2-hydroxy-acetylamino)-cyclohexyl]-amide] stands 0.741 nM. To `CCOC(=O)N1CCC(NC(=O)c2c[nH]c3c(-c4ccc(OC)cc4OCC4CC4)ncnc23)CC1` [Example 62, 4-({1-[4-(2-Cyclopropylmethoxy-4-methoxy-phenyl)-5H-pyrrolo[3,2-d]pyrimidin-7-yl]-methanoyl}-amino)-piperidine-1-carboxylic acid ethyl ester] belongs 0.309 nM. Under `CCOc1ccc2c(c1-c1ncnc3c(C(=O)NC4CCN(C(=O)COC)CC4)c[nH]c13)OCO2` [Example 135, 4-(5-Ethoxy-benzo[1,3]dioxol-4-yl)-5H-pyrrolo[3,2-d]pyrimidine-7-carboxylic acid [1-(2-methoxy-acetyl)piperidin-4-yl]-amide] stands 2 nM; under `CCOC(=O)N[C@H]1CC[C@H](NC(=O)c2c[nH]c3c(-c4ccccc4OCC4CC4)ncnc23)CC1` [Example 92, trans-(4-{[4-(2-Cyclopropylmethoxy-phenyl)-5H-pyrrolo[3,2-d]pyrimidine-7-carbonyl]-amino}-cyclohexyl)-carbamic acid ethyl ester], 3.39 nM; under `COc1ccc(-c2ncnc3c(C(=O)NC4CCN(C(=O)[C@H](C)O)CC4)c[nH]c23)c(OCC2CC2)c1` [Example 206, 4-(2-Cyclopropylmethoxy-4-methoxy-phenyl)-5H-pyrrolo[3,2-d]pyrimidine-7-carboxylic acid [1-((S)-2-hydroxy-propanoyl)piperidin-4-yl]-amide], 0.661 nM. `COCCOc1cc(OC)ccc1-c1ncnc2c(C(=O)NC3CCN(C(=O)C4CC4)CC3)c[nH]c12` [Example 159, 4-[4-Methoxy-2-(2-methoxy-ethoxy)-phenyl]-5H-pyrrolo[3,2-d]pyrimidine-7-carboxylic acid (1-cyclopropanecarbonyl-piperidin-4-yl)-amide] showed an IC50 of 6.03 nM. To `CCOC(=O)N[C@H]1CC[C@H](NC(=O)c2c[nH]c3c(-c4ccc(OC)cc4OCC4CC4)ncnc23)CC1` [Example 54, trans-(4-{[4-(2-Cyclopropylmethoxy-4-methoxy-phenyl)-5H-pyrrolo[3,2-d]pyrimidine-7-carbonyl]-amino}-cyclohexyl)-carbamic acid ethyl ester] belongs 0.417 nM; to `COCCOc1cc(OC)ccc1-c1ncnc2c(C(=O)N[C@H]3CC[C@@H](NC(=O)C4(O)CC4)CC3)c[nH]c12` [Example 258, cis-4-[4-Methoxy-2-(2-methoxy-ethoxy)-phenyl]-5H-pyrrolo[3,2-d]pyrimidine-7-carboxylic acid {-[(1-hydroxy-cyclopropanecarbonyl)-amino]-cyclohexyl}-amide], 6.31 nM; to `COc1cc(-c2ncnc3c(C(=O)NC4CCN(C(=O)[C@H](C)O)CC4)c[nH]c23)c(OCC2CC2)cc1F` [Example 228, 4-(2-Cyclopropylmethoxy-4-fluoro-5-methoxy-phenyl)-5H-pyrrolo[3,2-d]pyrimidine-7-carboxylic acid [1-((S)-2-hydroxy-propionyl)-piperidin-4-yl]-amide], 0.162 nM.

`CCC(=O)N1CCC(NC(=O)c2c[nH]c3c(-c4cc(F)c(OC)cc4OCC4CC4)ncnc23)CC1` [Example 110, 4-(2-Cyclopropylmethoxy-5-fluoro-4-methoxy-phenyl)-5H-pyrrolo[3,2-d]pyrimidine-7-carboxylic acid (1-propionyl-piperidin-4-yl)-amide]: the IC50 is 0.214 nM. Under `CCOC(=O)N1CC(NC(=O)c2c[nH]c3c(-c4c(OCC5CC5)ccc5c4OCO5)ncnc23)C1` [Example 42, 3-({1-[4-(5-Cyclopropylmethoxy-benzo[1,3]dioxol-4-yl)-5H-pyrrolo[3,2-d]pyrimidin-7-yl]-methanoyl}-amino)-azetidine-1-carboxylic acid ethyl ester] stands 0.191 nM; under `O=C(N[C@H]1CC[C@H](NC(=O)C2(O)CC2)CC1)c1c[nH]c2c(-c3c(OCC4CC4)ccc4c3OCO4)ncnc12` [Example 177, trans-4-(5-Cyclopropylmethoxy-benzo[1,3]dioxol-4-yl)-5H-pyrrolo[3,2-d]pyrimidine-7-carboxylic acid {4-[(1-hydroxy-cyclopropanecarbonyl)-amino]-cyclohexyl}-amide], 0.123 nM. For the compound `COCCNC(=O)[C@H]1CC[C@H](NC(=O)c2c[nH]c3c(-c4ccc(OC)cc4OCC4CC4)ncnc23)CC1` [Example 272, trans-4-(2-Cyclopropylmethoxy-4-methoxy-phenyl)-5H-pyrrolo[3,2-d]pyrimidine-7-carboxylic acid [4-(2-methoxy-ethylcarbamoyl)-cyclohexyl]-amide], inhibition was half-maximal at 0.708 nM (IC50). Under `COCCOc1cc(OC)ccc1-c1ncnc2c(C(=O)N[C@H]3CC[C@H](NC(=O)C4(O)CC4)CC3)c[nH]c12` [Example 257, trans-4-[4-Methoxy-2-(2-methoxy-ethoxy)-phenyl]-5H-pyrrolo[3,2-d]pyrimidine-7-carboxylic acid {-[(1-hydroxy-cyclopropanecarbonyl)-amino]-cyclohexyl}-amide] stands 9.33 nM; under `CCOC(=O)N[C@H]1CC[C@@H](NC(=O)c2c[nH]c3c(-c4c(OCC5CC5)ccc5c4OCO5)ncnc23)CC1` [Example 10, cis-[4-({1-[4-(5-Cyclopropylmethoxy-benzo[1,3]dioxol-4-yl)-5H-pyrrolo[3,2-d]pyrimidin-7-yl]-methanoyl}-amino)-cyclohexyl]-carbamic acid ethyl ester], 0.2 nM; under `COCC(=O)N[C@H]1CC[C@H](NC(=O)c2c[nH]c3c(-c4c(OCC5CC5)ccc5c4OCO5)ncnc23)CC1` [Example 50, trans-4-(5-Cyclopropylmethoxy-benzo[1,3]dioxol-4-yl)-5H-pyrrolo[3,2-d]pyrimidine-7-carboxylic acid [4-(2-methoxy-acetylamino)-cyclohexyl]-amide], 0.141 nM.

Compound `O=C(NC1CCN(C(=O)CO)CC1)c1c[nH]c2c(-c3cc(F)c(OC(F)F)cc3OCC3CC3)ncnc12` [Example 283, 4-[2-Cyclopropylmethoxy-4-(1,1-difluoro-methoxy)-5-fluoro-phenyl]-5H-pyrrolo[3,2-d]pyrimidine-7-carboxylic acid [1-(2-hydroxy-acetyl)piperidin-4-yl]-amide] had an IC50 of 5.13 nM. Under `CCCOc1ccc2c(c1-c1ncnc3c(C(=O)N[C@@H]4CCN(C(=O)[C@H](C)O)C4)c[nH]c13)OCO2` [Example 252, 4-(5-Propoxy-benzo[1,3]dioxol-4-yl)-5H-pyrrolo[3,2-d]pyrimidine-7-carboxylic acid [(R)-1-((S)-2-hydroxy-propionyl)-pyrrolidin-3-yl]amide] stands 1.2 nM; under `O=C(CO)N[C@H]1CC[C@H](NC(=O)c2c[nH]c3c(-c4ccccc4OCC4CC4)ncnc23)CC1` [Example 224, trans-4-(2-Cyclopropylmethoxy-phenyl)-5H-pyrrolo[3,2-d]pyrimidine-7-carboxylic acid [4-(2-hydroxy-acetylamino)-cyclohexyl]-amide], 6.92 nM. Under `CCOc1ccc2c(c1-c1ncnc3c(C(=O)N[C@@H]4CCN(C(=O)[C@H](C)O)C4)c[nH]c13)OCO2` [Example 250, 4-(5-Ethoxy-benzo[1,3]dioxol-4-yl)-5H-pyrrolo[3,2-d]pyrimidine-7-carboxylic acid [(R)-1-((S)-2-hydroxy-propionyl)-pyrrolidin-3-yl]amide] stands 4.79 nM; under `CC(=O)N[C@H]1CC[C@H](NC(=O)c2c[nH]c3c(-c4c(OCC5CC5)ccc5c4OCO5)ncnc23)CC1` [Example 4, trans-4-(5-Cyclopropylmethoxy-benzo[1,3]dioxol-4-yl)-5H-pyrrolo[3,2-d]pyrimidine-7-carboxylic acid (4-acetylamino-cyclohexyl)-amide], 0.162 nM.
